Laboratory results taken from publication PMC8799717, “Pharmacological targeting PIKfyve and tubulin as an effective treatment strategy for double-hit lymphoma” (Cell Death Discovery, 2022).

Assays:
Assay in all cases: biochemical
Parameters in all cases: KINOMEscan active-site-directed competition binding panel, 468 kinases, percent of DMSO control at 1 uM
Conditions in all cases: KINOMEscan binding, percent of DMSO control; read-out: Ctrl%
ITK = ITK (Homo sapiens, UniProt Q08881)
FAK = target: T1, FAK (Homo sapiens, UniProt Q05397)
T1 construct: gene PTK2

MST2 = target: T2, MST2 (Homo sapiens, UniProt Q13188)
T2 construct: gene STK3
T2 sequence (Q13188 whole entry): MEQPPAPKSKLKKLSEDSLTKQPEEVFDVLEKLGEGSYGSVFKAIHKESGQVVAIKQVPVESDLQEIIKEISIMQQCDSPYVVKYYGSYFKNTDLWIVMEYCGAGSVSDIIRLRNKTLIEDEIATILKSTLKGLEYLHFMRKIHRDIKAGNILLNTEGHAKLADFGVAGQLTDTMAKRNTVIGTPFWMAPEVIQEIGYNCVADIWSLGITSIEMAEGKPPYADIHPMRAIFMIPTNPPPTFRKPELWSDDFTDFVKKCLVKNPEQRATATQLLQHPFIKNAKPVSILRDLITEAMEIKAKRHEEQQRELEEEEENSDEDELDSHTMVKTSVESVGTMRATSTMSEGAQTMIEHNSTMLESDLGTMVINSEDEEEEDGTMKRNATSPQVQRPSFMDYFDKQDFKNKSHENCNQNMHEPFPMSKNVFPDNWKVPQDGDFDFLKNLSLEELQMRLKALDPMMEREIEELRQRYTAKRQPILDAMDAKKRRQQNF

TRPM6 = TRPM6 (Homo sapiens, UniProt Q9BX84)
ROCK1 = ROCK1 (Homo sapiens, UniProt Q13464)
Sequence of ROCK1 (Q13464 whole entry): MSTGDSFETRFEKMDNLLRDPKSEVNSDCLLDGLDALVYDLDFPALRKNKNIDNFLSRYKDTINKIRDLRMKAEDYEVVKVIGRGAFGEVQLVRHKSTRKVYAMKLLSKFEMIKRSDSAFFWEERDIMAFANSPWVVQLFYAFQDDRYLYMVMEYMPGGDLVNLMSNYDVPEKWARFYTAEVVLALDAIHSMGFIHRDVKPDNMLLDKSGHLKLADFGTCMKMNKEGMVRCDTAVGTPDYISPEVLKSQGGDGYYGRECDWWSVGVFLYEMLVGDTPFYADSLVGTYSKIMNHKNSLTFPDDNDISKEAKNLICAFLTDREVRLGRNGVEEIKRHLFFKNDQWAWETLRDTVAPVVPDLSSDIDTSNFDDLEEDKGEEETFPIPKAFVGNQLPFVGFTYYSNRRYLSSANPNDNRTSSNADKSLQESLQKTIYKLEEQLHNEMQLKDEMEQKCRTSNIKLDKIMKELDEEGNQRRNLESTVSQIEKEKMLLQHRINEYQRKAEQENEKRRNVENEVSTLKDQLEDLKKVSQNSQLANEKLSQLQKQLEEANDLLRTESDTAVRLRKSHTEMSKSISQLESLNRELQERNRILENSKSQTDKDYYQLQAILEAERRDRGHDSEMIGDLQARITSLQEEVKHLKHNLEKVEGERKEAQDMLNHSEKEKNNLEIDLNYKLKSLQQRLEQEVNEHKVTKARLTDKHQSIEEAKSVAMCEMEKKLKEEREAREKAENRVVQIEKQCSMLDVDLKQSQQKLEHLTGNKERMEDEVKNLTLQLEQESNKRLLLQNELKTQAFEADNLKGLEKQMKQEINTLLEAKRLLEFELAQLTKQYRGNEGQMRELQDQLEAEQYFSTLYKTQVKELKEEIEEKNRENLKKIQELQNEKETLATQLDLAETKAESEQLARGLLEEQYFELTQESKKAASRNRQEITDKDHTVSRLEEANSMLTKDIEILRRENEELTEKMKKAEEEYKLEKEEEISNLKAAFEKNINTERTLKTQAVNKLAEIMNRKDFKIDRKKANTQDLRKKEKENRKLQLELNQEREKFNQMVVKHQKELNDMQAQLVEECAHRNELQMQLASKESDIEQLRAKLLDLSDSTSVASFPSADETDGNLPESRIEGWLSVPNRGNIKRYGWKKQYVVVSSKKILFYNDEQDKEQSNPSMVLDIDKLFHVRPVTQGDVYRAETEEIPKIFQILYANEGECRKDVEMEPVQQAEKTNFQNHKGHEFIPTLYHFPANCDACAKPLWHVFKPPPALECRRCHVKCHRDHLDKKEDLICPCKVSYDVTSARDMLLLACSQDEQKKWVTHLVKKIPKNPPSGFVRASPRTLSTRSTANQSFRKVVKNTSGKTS

EPHA3 = EPHA3 (Homo sapiens, UniProt P29320)
p38-delta = target: T3, p38-delta (Homo sapiens, UniProt O15264)
T3 construct: gene MAPK13

LIMK1 = LIMK1 (Homo sapiens, UniProt P53667)
CDK4-cyclinD3 = target: T4, CDK4-cyclinD3 (Homo sapiens, UniProt P11802)
T4 construct: cyclinD3

HASPIN = HASPIN (Homo sapiens, UniProt Q8TF76)
ERK5 = target: T5, ERK5 (Homo sapiens, UniProt Q13164)
T5 construct: gene MAPK7

[1] = target: T6, JAK1(JH2domain-pseudokinase) (Homo sapiens, UniProt P23458)
T6 construct: JH2domain-pseudokinase

FLT3(ITD) = FLT3(ITD) (Homo sapiens, UniProt P36888, ITD)
NEK4 = NEK4 (Homo sapiens, UniProt P51957)
MAST1 = MAST1 (Homo sapiens, UniProt Q9Y2H9)
LKB1 = target: T7, LKB1 (Homo sapiens, UniProt Q15831)
T7 construct: gene STK11

EGFR(L858R) = EGFR(L858R) (Homo sapiens, UniProt P00533, L858R)
MET(M1250T) = MET(M1250T) (Homo sapiens, UniProt P08581, M1250T)
Sequence of MET(M1250T) (P08581 whole entry M1250T): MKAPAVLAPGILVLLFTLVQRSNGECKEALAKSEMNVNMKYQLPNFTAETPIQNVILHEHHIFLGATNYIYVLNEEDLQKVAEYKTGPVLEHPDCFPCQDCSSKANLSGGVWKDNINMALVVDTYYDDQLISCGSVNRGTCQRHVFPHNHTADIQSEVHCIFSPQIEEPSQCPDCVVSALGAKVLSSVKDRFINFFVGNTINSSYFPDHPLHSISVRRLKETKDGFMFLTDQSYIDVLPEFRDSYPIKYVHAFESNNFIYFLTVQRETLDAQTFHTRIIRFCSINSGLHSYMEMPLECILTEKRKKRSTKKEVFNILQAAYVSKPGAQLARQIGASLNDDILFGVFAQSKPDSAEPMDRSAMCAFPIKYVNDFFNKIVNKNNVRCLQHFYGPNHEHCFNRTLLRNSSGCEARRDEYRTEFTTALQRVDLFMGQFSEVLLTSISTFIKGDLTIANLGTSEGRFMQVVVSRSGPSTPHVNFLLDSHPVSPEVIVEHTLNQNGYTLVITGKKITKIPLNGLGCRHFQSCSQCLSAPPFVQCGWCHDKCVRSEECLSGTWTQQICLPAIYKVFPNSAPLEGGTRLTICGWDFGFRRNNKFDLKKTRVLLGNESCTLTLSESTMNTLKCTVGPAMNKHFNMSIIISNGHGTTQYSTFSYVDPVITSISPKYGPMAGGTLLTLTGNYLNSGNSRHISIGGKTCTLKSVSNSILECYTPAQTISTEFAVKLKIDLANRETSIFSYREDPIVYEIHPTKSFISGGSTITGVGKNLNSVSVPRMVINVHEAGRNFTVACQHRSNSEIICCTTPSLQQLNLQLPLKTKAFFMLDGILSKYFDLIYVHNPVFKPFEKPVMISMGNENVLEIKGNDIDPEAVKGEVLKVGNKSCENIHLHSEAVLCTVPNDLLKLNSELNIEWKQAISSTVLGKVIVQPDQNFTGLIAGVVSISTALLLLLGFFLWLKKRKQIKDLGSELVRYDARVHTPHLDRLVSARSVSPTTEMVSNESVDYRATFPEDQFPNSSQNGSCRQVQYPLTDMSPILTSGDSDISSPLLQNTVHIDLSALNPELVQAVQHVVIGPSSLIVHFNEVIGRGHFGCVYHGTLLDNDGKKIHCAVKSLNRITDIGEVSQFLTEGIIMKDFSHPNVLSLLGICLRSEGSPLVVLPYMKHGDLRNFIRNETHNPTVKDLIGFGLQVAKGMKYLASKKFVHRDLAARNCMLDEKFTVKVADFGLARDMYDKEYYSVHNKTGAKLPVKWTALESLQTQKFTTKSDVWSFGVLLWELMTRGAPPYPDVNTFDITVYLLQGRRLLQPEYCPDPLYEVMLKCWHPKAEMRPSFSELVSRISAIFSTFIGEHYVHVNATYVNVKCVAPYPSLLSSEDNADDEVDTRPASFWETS

MST3 = target: T8, MST3 (Homo sapiens, UniProt Q9Y6E0)
T8 construct: gene STK24
T8 sequence (Q9Y6E0 whole entry): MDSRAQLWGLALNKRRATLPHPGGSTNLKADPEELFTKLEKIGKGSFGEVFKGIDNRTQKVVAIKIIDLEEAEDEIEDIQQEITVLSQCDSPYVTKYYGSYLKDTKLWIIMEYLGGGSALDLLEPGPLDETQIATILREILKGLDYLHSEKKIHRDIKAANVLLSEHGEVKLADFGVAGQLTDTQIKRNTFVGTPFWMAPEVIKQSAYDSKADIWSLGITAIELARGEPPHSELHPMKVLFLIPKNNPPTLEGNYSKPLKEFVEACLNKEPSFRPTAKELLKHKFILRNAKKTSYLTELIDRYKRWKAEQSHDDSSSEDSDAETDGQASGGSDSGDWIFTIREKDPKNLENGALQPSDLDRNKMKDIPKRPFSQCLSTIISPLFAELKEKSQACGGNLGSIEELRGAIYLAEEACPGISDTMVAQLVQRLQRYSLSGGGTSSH

MARK1 = MARK1 (Homo sapiens, UniProt Q9P0L2)
Sequence of MARK1 (Q9P0L2 whole entry): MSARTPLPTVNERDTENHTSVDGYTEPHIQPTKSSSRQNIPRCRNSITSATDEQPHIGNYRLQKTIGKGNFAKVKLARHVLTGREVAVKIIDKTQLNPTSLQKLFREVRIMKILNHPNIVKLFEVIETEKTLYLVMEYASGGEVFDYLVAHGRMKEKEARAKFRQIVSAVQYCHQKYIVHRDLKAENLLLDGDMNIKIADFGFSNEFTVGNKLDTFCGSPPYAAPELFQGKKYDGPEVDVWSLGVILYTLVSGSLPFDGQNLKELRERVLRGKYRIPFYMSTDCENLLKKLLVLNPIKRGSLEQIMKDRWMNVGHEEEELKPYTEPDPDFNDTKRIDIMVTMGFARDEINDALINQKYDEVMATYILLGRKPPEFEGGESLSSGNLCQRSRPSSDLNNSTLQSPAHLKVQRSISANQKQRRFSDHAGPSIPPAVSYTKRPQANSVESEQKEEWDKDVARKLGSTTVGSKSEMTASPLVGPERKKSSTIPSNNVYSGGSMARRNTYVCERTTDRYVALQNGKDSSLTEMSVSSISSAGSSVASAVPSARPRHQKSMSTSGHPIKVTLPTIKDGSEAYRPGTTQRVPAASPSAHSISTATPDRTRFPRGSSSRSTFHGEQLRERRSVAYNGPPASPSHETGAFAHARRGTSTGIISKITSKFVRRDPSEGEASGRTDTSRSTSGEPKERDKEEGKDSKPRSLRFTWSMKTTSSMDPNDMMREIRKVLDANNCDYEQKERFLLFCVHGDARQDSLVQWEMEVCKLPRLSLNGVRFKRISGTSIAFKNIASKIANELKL

ZAP70 = ZAP70 (Homo sapiens, UniProt P43403)
EGFR(T790M) = EGFR(T790M) (Homo sapiens, UniProt P00533, T790M)
LATS1 = LATS1 (Homo sapiens, UniProt O95835)
EGFR = EGFR (Homo sapiens, UniProt P00533)

Sequence of ITK (Q08881 whole entry): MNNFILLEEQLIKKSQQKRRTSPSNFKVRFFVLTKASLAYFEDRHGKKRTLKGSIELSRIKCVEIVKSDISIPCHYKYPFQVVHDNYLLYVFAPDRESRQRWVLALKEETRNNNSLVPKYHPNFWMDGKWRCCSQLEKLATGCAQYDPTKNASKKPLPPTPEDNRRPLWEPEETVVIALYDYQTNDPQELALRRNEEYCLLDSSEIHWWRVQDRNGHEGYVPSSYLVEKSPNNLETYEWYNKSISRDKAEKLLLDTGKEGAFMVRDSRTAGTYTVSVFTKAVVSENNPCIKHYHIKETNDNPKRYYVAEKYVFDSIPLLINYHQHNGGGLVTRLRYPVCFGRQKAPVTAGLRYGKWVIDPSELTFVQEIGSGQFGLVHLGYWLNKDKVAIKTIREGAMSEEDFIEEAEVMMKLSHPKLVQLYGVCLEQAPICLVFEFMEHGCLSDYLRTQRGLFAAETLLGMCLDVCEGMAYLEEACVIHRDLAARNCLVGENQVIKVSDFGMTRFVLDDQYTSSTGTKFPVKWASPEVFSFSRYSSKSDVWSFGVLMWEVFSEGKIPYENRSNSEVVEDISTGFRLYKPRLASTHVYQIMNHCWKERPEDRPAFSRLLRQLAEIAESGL

Cc1ccc(NC(=O)c2cccc(C(F)(F)F)c2)cc1Nc1cc(-c2cccnc2)nc2[nH]ccc12 [HZX-02-059] gave a remaining binding at 1 µM (ITK) of 100%, a remaining binding at 1 µM (FAK) of 98% and a remaining binding at 1 µM (MST2) of 97%. It also gave a remaining binding at 1 µM (TRPM6) of 50%, a remaining binding at 1 µM (ROCK1) of 100% and a remaining binding at 1 µM (EPHA3) of 27%. For the same compound, the remaining binding at 1 µM (p38-delta) was 87%, the remaining binding at 1 µM (LIMK1) was 72% and the remaining binding at 1 µM (CDK4-cyclinD3) was 93%. It also gave a remaining binding at 1 µM (HASPIN) of 100%, a remaining binding at 1 µM (ERK5) of 99% and a remaining binding at 1 µM [1] of 64%. The remaining binding at 1 µM (FLT3(ITD)) was 79%, the remaining binding at 1 µM (NEK4) was 86% and the remaining binding at 1 µM (MAST1) was 100%. The remaining binding at 1 µM (LKB1) was 72%, the remaining binding at 1 µM (EGFR(L858R)) was 87% and the remaining binding at 1 µM (MET(M1250T)) was 100%. For the same compound, the remaining binding at 1 µM (MST3) was 100%, the remaining binding at 1 µM (MARK1) was 94% and the remaining binding at 1 µM (ZAP70) was 76%. The remaining binding at 1 µM (EGFR(T790M)) was 94%, the remaining binding at 1 µM (LATS1) was 95% and the remaining binding at 1 µM (EGFR) was 67%.
